From US20240239752A1, “BICYCLIC HETEROAROMATIC INHIBITORS OF KLK5” (BioCryst Pharmaceuticals, Inc., priority 2021, published 2024)

Target: T1, recombinant human KLK5 (Homo sapiens, UniProt Q9Y337)
T1 construct: purchased Novoprotein or R&D Systems C415 or 1108-SE
T1 sequence (Q9Y337 23-293): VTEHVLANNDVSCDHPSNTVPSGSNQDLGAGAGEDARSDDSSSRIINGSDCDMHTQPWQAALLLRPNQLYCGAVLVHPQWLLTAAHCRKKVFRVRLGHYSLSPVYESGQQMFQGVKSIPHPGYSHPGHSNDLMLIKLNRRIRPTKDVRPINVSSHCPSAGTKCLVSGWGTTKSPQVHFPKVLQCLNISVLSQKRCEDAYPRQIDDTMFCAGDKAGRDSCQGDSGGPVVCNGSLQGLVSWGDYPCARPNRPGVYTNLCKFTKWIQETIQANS
Test: Kallikrein (KLK) 5 enzymatic assay (Boc-VPR-AMC fluorogenic substrate)
Format: biochemical
Conditions: recombinant human KLK5 0.1 μg/well, Boc-VPR-AMC 100 μM, pH 7.5, room temperature, 1% DMSO; tested a minimum of three times
Text: Kallikrein-5 (KLK5) is a member of the serine protease family of proteolytic enzymes, confirmed to have trypsin-like activity (Michael I P, et al. Biochemical and enzymatic characterization of human kallikrein 5 (hK5), a novel serine protease potentially involved in cancer progression (J. Biol. Chem. 2005 Apr. 15; 280 (15): 14628-35). Boc-VPR-AMC is a fluorogenic peptide substrate composed of the short peptide chain, Valine-Proline-Arginine (VPR) and the fluorophore, 7-amino-4-methylcoumarin (AMC). KLK5 is able to cleave the fluorogenic peptide substrate Boc-VPR-AMC, releasing the AMC fluorophore, which causes a fluorescent emission in proportion with the enzymatic activity of KLK5. The KLK5 enzymatic activity is monitored by measuring fluorescent emission at wavelengths of 380 nm (excitation) and 460 nm (emission).
The IC50 value of compounds against KLK5 (i.e., the concentration of the compound that inhibits 50% of the enzymatic activity) was calculated according to the procedure reported by R&D systems (Recombinant human KLK5, Catalog Number: 1108-SE), with the exception the pH of the assay was modified from 8.0 to 7.5. Specifically, recombinant human KLK5 (Novoprotein Catalog #C415 or R&D systems Catalog #1108-SE) and fluorogenic peptide Boc-VPR-AMC substrate (R&D Catalog #ES011) were each separately diluted in assay buffer (0.1 M NaH2PO4 buffer, pH 7.5). The compounds of the disclosure were dissolved in DMSO at a concentration of 10 mM. A portion of this stock solution was added to the recombinant human KLK5 solution to provide a desired concentration of the compounds and the mixture was incubated at room temperature. The reaction was initiated by the addition of the fluorogenic peptide substrate at room temperature. The final concentration of recombinant human KLK5 was 0.1 μg/well and the final concentration of the fluorogenic substrate was 100 μM (final volume of 100 μL, 1% DMSO). The assays were performed in 96 well F16 Black Maxisorp Plate (Nunc Catalog #475515). Controls included assay buffer alone and enzyme solutions to which DMSO was added. The reaction rates were measured spectrophotometrically by excitation at 380 nm and emission at 460 nm on a Biotek Synergy H1 plate reader.
The reaction rate for enzyme alone was compared to the reaction rate of enzyme in the presence of compound and the percent inhibition was calculated as shown below:
Percent Inhibition=[Rate with inhibitor/Rate without inhibitor)]×100
An IC50 indicates a compound concentration that inhibits 50% of the enzymatic activity. Compounds were tested a minimum of three times.

Row | SMILES | IC50 [nM]
1 | CC(C)COC(=O)N1CC[C@@H](n2nc(COc3ccccc3CC(=O)O)c3cc(-c4ccc5ccnc(N)c5c4)ccc32)C1 [Compound 364c, (R)-2-(2-((5-(1-aminoisoquinolin-7-yl)-1-(1-(isobutoxycarbonyl)pyrrolidin-3-yl)-1H-indazol-3-yl)methoxy)phenyl)acetic acid] | < 1000
2 | NC(=O)c1cc(-c2cccc3c(N)nccc23)cc2c(COc3ccccc3CC(=O)O)nn(C3CCCCO3)c12 (centres unmarked) [Compound 286a, 2-(2-((5-(1-aminoisoquinolin-5-yl)-7-carbamoyl-1-(tetrahydro-2H-pyran-2-yl)-1H-indazol-3-yl)methoxy)phenyl)acetic acid] | 1000 to 10000
3 | CC(C)CCN1CC(n2nc(COc3ccccc3CC(=O)O)c3cc(-c4ccc5ccnc(N)c5c4)ccc32)C1 [Compound 146b, 2-(2-((5-(1-aminoisoquinolin-7-yl)-1-(1-isopentylazetidin-3-yl)-1H-indazol-3-yl)methoxy)phenyl)acetic acid] | < 1000
4 | Nc1nccc2c(-c3cc(-c4ccccc4)c4c(c3)C(Oc3ccccc3CC(=O)O)CC4)cccc12 (centres unmarked) [Compound 256f, 2-(2-((6-(1-aminoisoquinolin-5-yl)-4-phenyl-2,3-dihydro-1H-inden-1-yl)oxy)phenyl)acetic acid] | 1000 to 10000
5 | Nc1nccc2c(-c3ccc4nn(C5CCCC5)c(COc5ccccc5CC(=O)O)c4c3)cccc12 [Compound 21e, 2-(2-((5-(1-aminoisoquinolin-5-yl)-2-cyclopentyl-2H-indazol-3-yl)methoxy)phenyl)acetic acid] | < 1000
6 | CC(C)n1nc(COc2ccccc2CC(=O)O)c2cc(-c3ccc4c(c3)[C@H](N)CO4)ccc21 [Compound 79c, (S)-2-(2-((5-(3-amino-2,3-dihydrobenzofuran-5-yl)-1-isopropyl-1H-indazol-3-yl)methoxy)phenyl)acetic acid] | > 10000
7 | Cc1cccc(OCc2nn(C3CCOC3)c3ccc(-c4ccc5ccnc(N)c5c4)cc23)c1CC(=O)O (centres unmarked) [Compound 248b, 2-(2-((5-(1-aminoisoquinolin-7-yl)-1-(tetrahydrofuran-3-yl)-1H-indazol-3-yl)methoxy)-6-methylphenyl)acetic acid] | < 1000
8 | Nc1nccc2ccc(-c3ccc4c(c3)c(COc3ccccc3CC(=O)O)nn4C3CCOCC3)cc12 [Compound 281g, 2-(2-((5-(1-aminoisoquinolin-7-yl)-1-(tetrahydro-2H-pyran-4-yl)-1H-indazol-3-yl)methoxy)phenyl)acetic acid] | < 1000
9 | Nc1nccc2c(-c3cc4c(COc5ccccc5CC(=O)O)cccc4o3)cccc12 [Compound 232b, 2-(2-((2-(1-aminoisoquinolin-5-yl)benzofuran-4-yl)methoxy)phenyl)acetic acid] | > 10000
10 | CC(C)CCN1CCC(n2nc3ccc(-c4ccc5ccnc(N)c5c4)cc3c2COc2ccccc2CC(=O)O)CC1 [Compound 131h, 2-(2-((5-(1-aminoisoquinolin-7-yl)-2-(1-isopentylpiperidin-4-yl)-2H-indazol-3-yl)methoxy)phenyl)acetic acid] | < 1000
11 | CC1CC(n2nc(COc3ccccc3CC(=O)O)c3cc(-c4ccc5ccnc(N)c5c4)ccc32)C1 (centres unmarked) [Compound 9j, 2-(2-((5-(1-aminoisoquinolin-7-yl)-1-(3-methylcyclobutyl)-1H-indazol-3-yl)methoxy)phenyl)acetic acid] | < 1000
12 | COc1cc2nn(C3CCC3)c(COc3ccccc3CC(=O)O)c2cc1-c1cccc(C(=N)N)c1 [Compound 271c, 2-(2-((5-(3-carbamimidoylphenyl)-2-cyclobutyl-6-methoxy-2H-indazol-3-yl)methoxy)phenyl)acetic acid] | 1000 to 10000
13 | CC(C)n1nc(COc2ccccc2CC(=O)O)c2cc(-c3ccc4cc(Cl)nc(N)c4c3)ccc21 [Compound 46d, 2-(2-((5-(1-amino-3-chloroisoquinolin-7-yl)-1-isopropyl-1H-indazol-3-yl)methoxy)phenyl)acetic acid] | > 10000
14 | Cc1ccc(OCc2c3cc(-c4ccc5ccnc(N)c5c4)ccc3nn2C2CCC2)c(CC(=O)O)c1 [Compound 155d, 2-(2-((5-(1-aminoisoquinolin-7-yl)-2-cyclobutyl-2H-indazol-3-yl)methoxy)-5-methylphenyl)acetic acid] | 1000 to 10000
15 | NCc1cc(-c2cccc3c(N)nccc23)cc2c(COc3ccccc3CC(=O)O)n[nH]c12 [Compound 280a, 2-(2-((5-(1-aminoisoquinolin-5-yl)-7-(aminomethyl)-1H-indazol-3-yl)methoxy)phenyl)acetic acid] | 1000 to 10000
16 | COc1cc(-c2ccc3ccnc(N)c3c2)cc2c(COc3cc(C)ccc3CC(=O)O)coc12 [Compound 230d, 2-(2-((5-(1-aminoisoquinolin-7-yl)-7-methoxybenzofuran-3-yl)methoxy)-4-methylphenyl)acetic acid] | 1000 to 10000
17 | CCOC(=O)N1CCC2(CC1)CC(Oc1cccc(C)c1CC(=O)O)c1cc(-c3cccc4c(N)nccc34)ccc12 (centres unmarked) [Compound 405b, 2-(2-((5-(1-aminoisoquinolin-5-yl)-1′-(ethoxycarbonyl)-2,3-dihydrospiro[indene-1,4′-piperidin]-3-yl)oxy)-6-methylphenyl)acetic acid] | < 1000
18 | CCCN1CCC2(CC1)C[C@@H](Oc1ccccc1CC(=O)O)c1cc(-c3cccc4c(N)nccc34)ccc12 [Compound 417b, (R)-2-(2-((5-(1-aminoisoquinolin-5-yl)-1′-propyl-2,3-dihydrospiro[indene-1,4′-piperidin]-3-yl)oxy)phenyl)acetic acid] | < 1000

Further lines, results first:

Row | IC50 [nM] | SMILES
19 | < 1000 | Nc1nccc2ccc(-c3ccc4c(c3)c(COc3ccccc3CC(=O)O)nn4[C@H]3CCOC3)cc12 [Compound 244b, (S)-2-(2-((5-(1-aminoisoquinolin-7-yl)-1-(tetrahydrofuran-3-yl)-1H-indazol-3-yl)methoxy)phenyl)acetic acid]
20 | < 1000 | COC(=O)N1CCC2(CC1)CC(Oc1cc(F)ccc1CC(=O)O)c1cc(-c3cccc4c(N)nccc34)ccc12 (centres unmarked) [Compound 409b, 2-(2-((5-(1-aminoisoquinolin-5-yl)-1′-(methoxycarbonyl)-2,3-dihydrospiro[indene-1,4′-piperidin]-3-yl)oxy)-4-fluorophenyl)acetic acid]
21 | < 1000 | COc1cc2nn(C3CCC3)c(COc3ccccc3CC(=O)O)c2cc1-c1ccc2ccnc(N)c2c1 [Compound 269f, 2-(2-((5-(1-aminoisoquinolin-7-yl)-2-cyclobutyl-6-methoxy-2H-indazol-3-yl)methoxy)phenyl)acetic acid]
22 | < 1000 | Cc1cccc(OC2CC3(CCN(S(C)(=O)=O)CC3)c3ccc(-c4ccc5ccnc(N)c5c4)cc32)c1CC(=O)O (centres unmarked) [Compound 448c, 2-(2-((5-(1-aminoisoquinolin-7-yl)-1′-(methylsulfonyl)-2,3-dihydrospiro[indene-1,4′-piperidin]-3-yl)oxy)-6-methylphenyl)acetic acid]
23 | < 1000 | Nc1nccc2c(-c3ccc4c(c3)c(COc3ccccc3CC(=O)O)nn4[C@@H]3CCOC3)cccc12 [Compound 245h, (R)-2-(2-((5-(1-aminoisoquinolin-5-yl)-1-(tetrahydrofuran-3-yl)-1H-indazol-3-yl)methoxy)phenyl)acetic acid]
24 | < 1000 | CCn1nc(COc2ccccc2CC(=O)O)c2cc(-c3cccc4c(N)nccc34)ccc21 [Compound 178f, 2-(2-((5-(1-aminoisoquinolin-5-yl)-1-ethyl-1H-indazol-3-yl)methoxy)phenyl)acetic acid]
25 | < 1000 | N#Cc1cccc(O[C@@H]2CCc3ccc(-c4cccc5c(N)nccc45)cc32)c1CC(=O)O [Compound 433b, (R)-2-(2-((6-(1-aminoisoquinolin-5-yl)-2,3-dihydro-1H-inden-1-yl)oxy)-6-cyanophenyl)acetic acid]
26 | < 1000 | Cc1cccc(OC2CC3(CCCC3)c3ccc(-c4cccc5c(N)nccc45)cc32)c1CC(=O)O (centres unmarked) [Compound 366c, 2-(2-((5′-(1-aminoisoquinolin-5-yl)-2′,3′-dihydrospiro[cyclopentane-1,1′-inden]-3′-yl)oxy)-6-methylphenyl)acetic acid]
